Data set [1] is described as follows: Toxicity in nude mouse xenografted with human SW1990 cells assessed as liver damage at 45 mg/kg, ip administered for 28 days by H and E staining based fluorescence microscopic analysis. The note with it: in vivo, 672 h, time 28 day. It counts as organism-based. (In general: In xenograft studies the graft and the host belong to different species.)
Data set [2] relates to Mus musculus. Briefly: Upregulation of CDK6 expression in nude mouse xenografted with human SW1990 cells at 45 mg/kg, ip measured after 4 days by Q-PCR analysis. It counts as functional, organism-based. As to conditions: time 4.0 day.
For data set [3], the system named is Mus musculus. Briefly: Upregulation of CCNB1 expression in nude mouse xenografted with human SW1990 cells at 45 mg/kg, ip measured after 4 days by Q-PCR analysis. The note with it: time 4.0 day. It counts as functional, organism-based.
Data set [4] concerns Mus musculus. As to the kind of experiment: Upregulation of CDC25B expression in nude mouse xenografted with human SW1990 cells at 45 mg/kg, ip measured after 4 days by Q-PCR analysis. It counts as functional, organism-based. As to conditions: time 4.0 day.
For data set [5], the system named is Mus musculus. Briefly: Upregulation of CCNB1 expression in nude mouse xenografted with human SW1990 cells at 45 mg/kg, ip measured after 4 days by Western blot analysis. It counts as functional, organism-based. The note with it: time 4.0 day.
The test system of data set [6] is SW1990. As to the kind of experiment: Effect on CDC25B gene expression in human SW1990 cells at 6 uM by Q-PCR analysis. It counts as functional, cell-based.
Data set [7] deals with SW1990. Briefly: Effect on CDK1 gene expression in human SW1990 cells at 6 uM by Q-PCR analysis. It counts as functional, cell-based.
The test system of data set [8] is SW1990. As to the kind of experiment: Effect on E2F2 gene expression in human SW1990 cells at 6 uM by Q-PCR analysis. It counts as functional, cell-based.
Data set [9] has as its system SW1990. Briefly: Effect on Rad51 gene expression in human SW1990 cells at 6 uM by Q-PCR analysis. It counts as functional, cell-based.
Data set [10] has as its system SW1990. Briefly: Upregulation of CCNB1 expression in human SW1990 cells at 6 uM measured after 4 days by Western blot analysis. It counts as functional, cell-based. As to conditions: time 4.0 day. (In general: In western blotting, separated proteins are transferred to a membrane and probed.)
The subject of data set [11] is Mus musculus. Briefly: Upregulation of […] expression in nude mouse xenografted with human SW1990 cells at 45 mg/kg, ip measured after 28 days by DAPI staining based laser confocal microscopic analysis. It counts as functional, organism-based. The note with it: time 28.0 day.
Data set [12] relates to Mus musculus. Briefly: Upregulation of BRD4 expression in nude mouse xenografted with human SW1990 cells at 45 mg/kg, ip measured after 28 days by DAPI staining based laser confocal microscopic analysis. It counts as functional, organism-based. As to conditions: time 28.0 day.
Data set [13] can be described thus: Toxicity in nude mouse xenografted with human SW1990 cells assessed as spleen damage at 15 mg/kg, ip administered for 28 days by H and E staining based fluorescence microscopic analysis. It counts as organism-based. As to conditions: in vivo, 672 h, time 28 day.
Data set [14] is described as follows: Toxicity in nude mouse xenografted with human SW1990 cells assessed as lung damage at 15 mg/kg, ip administered for 28 days by H and E staining based fluorescence microscopic analysis. It counts as organism-based. As to conditions: in vivo, 672 h, time 28 day.
Data set [15] relates to SW1990. As to the kind of experiment: Induction of apoptosis in human SW1990 cells assessed as necrotic cells at 4 uM measured after 4 days by Annexin V-FITC/propidium iodide staining based flow cytometry (reference value: 2.45%). It counts as functional. The note with it: time 4 day. For orientation: Flow cytometry measures light scatter and fluorescence of single cells or particles in a stream.

The test system of data set [16] is SW1990. Briefly: Induction of apoptosis in human SW1990 cells assessed as early apoptotic cells at 1 uM measured after 4 days in presence of 3 uM Olaparib by Annexin V-FITC and propidium iodide staining based flow cytometry (reference value: 1.62%). The note with it: time 4 day. It counts as functional.
The test system of data set [17] is SW1990. Briefly: Induction of cell cycle arrest in human SW1990 cells assessed as accumulation of cells at G2/M phase at 1 uM incubated for 4 days in presence of 3 uM Olaparib by propidium iodide staining based flow cytometry (reference value: 5.89%). It counts as functional. As to conditions: time 4 day.
Data set [18] deals with SW1990. As to the kind of experiment: Effect on E2F2 gene expression in human SW1990 cells at 4 uM by Q-PCR analysis. It counts as functional, cell-based.
Data set [19] concerns SW1990. As to the kind of experiment: Effect on CDC25B gene expression in human SW1990 cells at 1 uM in presence of Olaparib by Q-PCR analysis. It counts as functional, cell-based.
For data set [20], the system named is SW1990. Briefly: Effect on CCND1 gene expression in human SW1990 cells at 1 uM in presence of Olaparib by Q-PCR analysis. It counts as functional, cell-based.
The next data set has as its system CAPAN-1. Briefly: Antiproliferative activity against human CAPAN-1 cells assessed as inhibition of cell growth measured after 4 days by MTT assay. The note with it: CAPAN-1, 96 h. It counts as functional, cell-based.
A short description of data set [21]: Toxicity in nude mouse xenografted with human SW1990 cells assessed as liver damage at 30 mg/kg, ip administered for 28 days by H and E staining based fluorescence microscopic analysis. It counts as organism-based. As to conditions: in vivo, 672 h, time 28 day.
A short description of data set [22]: Toxicity in nude mouse xenografted with human SW1990 cells assessed as kidney damage at 30 mg/kg, ip administered for 28 days by H and E staining based fluorescence microscopic analysis. It counts as organism-based. The note with it: in vivo, 672 h, time 28 day.
For data set [23], the system named is Mus musculus. Briefly: Inhibition of BRD4 expression in nude mouse xenografted with human SW1900 cells at 30 mg/kg, ip administered for 28 days by Q-PCR analysis. It counts as functional, organism-based. The note with it: time 28.0 day.
Data set [24] relates to SW1990. Briefly: Downregulation of PARP1 expression in human SW1990 cells at 2 uM measured after 4 days by Western blot analysis. It counts as functional, cell-based. As to conditions: time 4.0 day.
Data set [25] concerns SW1990. Briefly: Induction of apoptosis in human SW1990 cells assessed as late apoptotic cells at 1 uM measured after 4 days by Annexin V-FITC and propidium iodide staining based flow cytometry (reference value: 7.23%). The note with it: time 4 day. It counts as functional.
In data set [26] the test system is SW1990. Briefly: Induction of cell cycle arrest in human SW1990 cells assessed as accumulation of cells at G0/G1 phase at 1 uM incubated for 4 days by propidium iodide staining based flow cytometry (reference value: 64.79%). It counts as functional. The note with it: time 4 day.
Data set [27] relates to SW1990. As to the kind of experiment: Induction of cell cycle arrest in human SW1990 cells assessed as accumulation of cells at G2/M phase at 1 uM incubated for 4 days by propidium iodide staining based flow cytometry (reference value: 5.89%). It counts as functional. The note with it: time 4 day.
The subject of data set [28] is SW1990. Briefly: Induction of cell cycle arrest in human SW1990 cells assessed as accumulation of cells at G2/M phase at 2 uM incubated for 4 days by propidium iodide staining based flow cytometry (reference value: 5.89%). It counts as functional. As to conditions: time 4 day.
Data set [29] concerns Mus musculus. Briefly: Inhibition of CDK6 expression in nude mouse xenografted with human SW1990 cells at 30 mg/kg, ip measured after 4 days by Q-PCR analysis. It counts as functional, organism-based. As to conditions: time 4.0 day.
In data set [30] the test system is Mus musculus. As to the kind of experiment: Inhibition of E2F2 expression in nude mouse xenografted with human SW1990 cells at 30 mg/kg, ip measured after 4 days by Western blot analysis. It counts as functional, organism-based. As to conditions: time 4.0 day.
For data set [31], the system named is Mus musculus. As to the kind of experiment: Inhibition of CDK6 expression in nude mouse xenografted with human SW1990 cells at 30 mg/kg, ip measured after 4 days by Western blot analysis. It counts as functional, organism-based. The note with it: time 4.0 day.
Data set [32] concerns Mus musculus. Briefly: Inhibition of CDK1 expression in nude mouse xenografted with human SW1990 cells at 30 mg/kg, ip measured after 4 days by Western blot analysis. It counts as functional, organism-based. The note with it: time 4.0 day.
Data set [33] has as its system SW1990. Briefly: Inhibition of homologous recombinant repair in human SW1990 cells assessed as reversal of Olaparib-induced c-Myc expression at 1 to 2 uM after 4 days by Western blot analysis. It counts as functional, cell-based. As to conditions: dose 1-2 µM, time 4.0 day.
Data set [34] has as its system Mus musculus. As to the kind of experiment: Inhibition of homologous recombinant repair in nude mouse xenografted with human SW1990 cells assessed as reversal of olaparib-induced ALDH1A1 expression at 30 mg/kg, ip after 4 days by Western blot analysis. The note with it: time 4.0 day. It counts as functional, organism-based.
Data set [35] has as its system Mus musculus. Briefly: Inhibition of homologous recombinant repair in nude mouse xenografted with human SW1990 cells assessed as reversal of olaparib-induced Rad51 expression at 30 mg/kg, ip after 4 days by Western blot analysis. It counts as functional, organism-based. The note with it: time 4.0 day.
The test system of data set [36] is SW1990. As to the kind of experiment: Effect on CDC25B gene expression in human SW1990 cells at 1 to 2 uM by Q-PCR analysis. It counts as functional, cell-based. The note with it: dose 1-2 µM.
Data set [37] relates to SW1990. Briefly: Effect on CDK1 gene expression in human SW1990 cells at 1 to 2 uM by Q-PCR analysis. It counts as functional, cell-based. As to conditions: dose 1-2 µM.

Activity calls are given as the source filed them. The rule behind the calls is not given here.

Take `O=C(c1cc(Cc2n[nH]c(=O)c3ccccc23)ccc1F)N1CCN(C(=O)C2CC2)CC1` [OLAPARIB]: the Activity result in data set [1] was “Non-Toxic”. Moreover, the outcome with Mus musculus [2], with Mus musculus [3], in the data set with Mus musculus [4], in the data set on Mus musculus [5], in the data set with SW1990 [6] and in the data set with SW1990 [7] was Active. Besides, the result in the data set on SW1990 [8], in the data set with SW1990 [9], with SW1990 [10], in the data set with Mus musculus [11] and with Mus musculus [12] was Active.
Regarding `Cc1sc2c(c1C)C(c1ccc(Cl)cc1)=N[C@@H](CC(=O)OC(C)(C)C)c1nnc(C)n1-2`, the Activity entry in [13] is “Non-Toxic”; in [14], “Non-Toxic”; in the data set on SW1990 [15], 3.35%; in the data set on SW1990 [16], 3.07%; in the data set with SW1990 [17], 9.14%. Also, the result in the data set with SW1990 [18], in the data set on SW1990 [19] and in the data set with SW1990 [20] was Active.
For the compound `Cc1noc(C)c1-c1ccc2c(c1)C(c1ccccc1)N(Cc1nc3c(C(N)=O)cccc3[nH]1)C(=O)N2C` (stereo not drawn), in the data set on CAPAN-1, the concentration for half-maximal inhibition (IC50) (as a rule, the midpoint of a concentration-inhibition curve) was 1710 nM. For the same compound, the Activity entry was “Non-Toxic” in data set [21]; “Non-Toxic” in data set [22]; 33.6% in the data set on SW1990 [25]; 74.9% with SW1990 [26]; 10.13% in the data set with SW1990 [27]; 12.83% with SW1990 [28]. Also, the inhibition entry with Mus musculus [23], in the data set on Mus musculus [29], in the data set on Mus musculus [30], in the data set with Mus musculus [31], with Mus musculus [32] and with SW1990 [33] was “Active” throughout. In addition, the inhibition result in the data set with Mus musculus [34] and in the data set on Mus musculus [35] was “Active” throughout. Besides, the result in the data set with SW1990 [24], in the data set on SW1990 [36] and in the data set with SW1990 [37] was Active.
